Reference: PubChem BioAssay (NCI)
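Exposure lasted 48 hours, with cells grown in 96-well plates and compounds tested at five concentrations. The concentration for 50% growth inhibition is given as GI50. TGI: total growth inhibition.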

How the values were obtained:
Test in all cases: NCI anticancer screen, dose series, 48 h
EKVX NSCLC = system: EKVX NSCLC
SF-268 CNS = system: SF-268 CNS
OVCAR-8 ovarian = system: OVCAR-8 ovarian
SF-295 CNS = system: SF-295 CNS
OVCAR-4 ovarian = system: OVCAR-4 ovarian
HT29 colon = system: HT29 colon
BT-549 breast = system: BT-549 breast
CAKI-1 renal = system: CAKI-1 renal
NCI-H460 lung = system: NCI-H460 lung
SK-MEL-28 melanoma = system: SK-MEL-28 melanoma
PC-3 prostate = system: PC-3 prostate
SK-MEL-2 melanoma = system: SK-MEL-2 melanoma
786-0 renal = system: 786-0 renal
HS 578T breast = system: HS 578T breast
HCT-15 colon = system: HCT-15 colon
OVCAR-5 ovarian = system: OVCAR-5 ovarian
LOX IMVI melanoma = system: LOX IMVI melanoma
SK-OV-3 ovarian = system: SK-OV-3 ovarian
NCI-H226 lung = system: NCI-H226 lung
HCT-116 colon = system: HCT-116 colon
SW-620 colon = system: SW-620 colon
OVCAR-3 ovarian = system: OVCAR-3 ovarian
HL-60(TB) leukemia = system: HL-60(TB) leukemia
NCI-H23 lung = system: NCI-H23 lung
K-562 leukemia = system: K-562 leukemia
MCF7 breast = system: MCF7 breast
UACC-257 melanoma = system: UACC-257 melanoma
UO-31 renal = system: UO-31 renal
KM12 colon = system: KM12 colon
A498 renal = system: A498 renal
T-47D breast = system: T-47D breast
NCI-H522 lung = system: NCI-H522 lung
SK-MEL-5 melanoma = system: SK-MEL-5 melanoma
TK-10 renal = system: TK-10 renal
MDA-MB-231 breast = system: MDA-MB-231 breast
SNB-19 CNS = system: SNB-19 CNS
UACC-62 melanoma = system: UACC-62 melanoma
MDA-MB-435 = system: MDA-MB-435
HOP-62 NSCLC = system: HOP-62 NSCLC
SNB-75 CNS = system: SNB-75 CNS
MOLT-4 leukemia = system: MOLT-4 leukemia
HCC-2998 colon = system: HCC-2998 colon
CCRF-CEM leukemia = system: CCRF-CEM leukemia
HOP-92 NSCLC = system: HOP-92 NSCLC
NCI/ADR-RES ovarian = system: NCI/ADR-RES ovarian
M14 melanoma = system: M14 melanoma
SN12C renal = system: SN12C renal
A549 NSCLC = system: A549 NSCLC
IGROV1 ovarian = system: IGROV1 ovarian
SF-539 CNS = system: SF-539 CNS
SR leukemia = system: SR leukemia
U251 CNS = system: U251 CNS
ACHN renal = system: ACHN renal
RPMI-8226 leukemia = system: RPMI-8226 leukemia
COLO 205 colon = system: COLO 205 colon
MALME-3M melanoma = system: MALME-3M melanoma
DU-145 prostate = system: DU-145 prostate

Oc1cccc(-c2nc(-c3n[nH]c(=S)n3-c3ccccc3)cc3c2[nH]c2ccccc23)c1
GI50 (EKVX NSCLC): 4 µM
TGI (EKVX NSCLC): 23.4 µM
GI50 (SF-268 CNS): 3.56 µM
TGI (SF-268 CNS): 14.7 µM
GI50 (OVCAR-8 ovarian): 3.09 µM
TGI (OVCAR-8 ovarian): 8.83 µM
GI50 (SF-295 CNS): 2.16 µM
TGI (SF-295 CNS): 5.75 µM
GI50 (OVCAR-4 ovarian): 3.79 µM
TGI (OVCAR-4 ovarian): 17.3 µM
GI50 (HT29 colon): 2.55 µM
TGI (HT29 colon): 6.18 µM
GI50 (BT-549 breast): 2.67 µM
TGI (BT-549 breast): 6.8 µM
GI50 (CAKI-1 renal): 2.81 µM
TGI (CAKI-1 renal): 11.9 µM
GI50 (NCI-H460 lung): 3.1 µM
TGI (NCI-H460 lung): 9.5 µM
GI50 (SK-MEL-28 melanoma): 1.81 µM
TGI (SK-MEL-28 melanoma): 7.28 µM
GI50 (PC-3 prostate): 2.63 µM
TGI (PC-3 prostate): 10.9 µM
GI50 (SK-MEL-2 melanoma): 1.88 µM
TGI (SK-MEL-2 melanoma): 6.08 µM
GI50 (786-0 renal): 3.19 µM
TGI (786-0 renal): 11 µM
GI50 (HS 578T breast): 3.43 µM
TGI (HS 578T breast): 24.6 µM
GI50 (HCT-15 colon): 2.88 µM
TGI (HCT-15 colon): 10.9 µM
GI50 (OVCAR-5 ovarian): 4.38 µM
TGI (OVCAR-5 ovarian): 15.7 µM
GI50 (LOX IMVI melanoma): 1.8 µM
TGI (LOX IMVI melanoma): 3.83 µM
GI50 (SK-OV-3 ovarian): 3.02 µM
TGI (SK-OV-3 ovarian): 8.72 µM
GI50 (NCI-H226 lung): 3.92 µM
TGI (NCI-H226 lung): 18.6 µM
GI50 (HCT-116 colon): 3.28 µM
TGI (HCT-116 colon): 9.82 µM
GI50 (SW-620 colon): 3.63 µM
TGI (SW-620 colon): 11.9 µM
GI50 (OVCAR-3 ovarian): 2.18 µM
TGI (OVCAR-3 ovarian): 5.73 µM
GI50 (HL-60(TB) leukemia): 3.38 µM
TGI (HL-60(TB) leukemia): 8.98 µM
GI50 (NCI-H23 lung): 3.97 µM
TGI (NCI-H23 lung): 19.7 µM
GI50 (K-562 leukemia): 3.16 µM
TGI (K-562 leukemia): 21.6 µM
GI50 (MCF7 breast): 3.37 µM
TGI (MCF7 breast): 13.6 µM
GI50 (UACC-257 melanoma): 3.22 µM
TGI (UACC-257 melanoma): 9.88 µM
GI50 (UO-31 renal): 2.09 µM
TGI (UO-31 renal): 11.7 µM
GI50 (KM12 colon): 3.15 µM
TGI (KM12 colon): 11.7 µM
GI50 (A498 renal): 2.15 µM
TGI (A498 renal): 5.8 µM
GI50 (T-47D breast): 2.14 µM
TGI (T-47D breast): 8.18 µM
GI50 (NCI-H522 lung): 1.8 µM
TGI (NCI-H522 lung): 4.98 µM
GI50 (SK-MEL-5 melanoma): 3.15 µM
TGI (SK-MEL-5 melanoma): 11 µM
GI50 (TK-10 renal): 4.08 µM
TGI (TK-10 renal): 16.3 µM
GI50 (MDA-MB-231 breast): 3.19 µM
TGI (MDA-MB-231 breast): 13 µM
GI50 (SNB-19 CNS): 3.11 µM
TGI (SNB-19 CNS): 11.4 µM
GI50 (UACC-62 melanoma): 2.4 µM
TGI (UACC-62 melanoma): 8.77 µM
GI50 (MDA-MB-435): 1.26 µM
TGI (MDA-MB-435): 4.5 µM
GI50 (HOP-62 NSCLC): 2.24 µM
TGI (HOP-62 NSCLC): 7.96 µM
GI50 (SNB-75 CNS): 1.72 µM
TGI (SNB-75 CNS): 5.89 µM
GI50 (MOLT-4 leukemia): 3.78 µM
TGI (MOLT-4 leukemia): 14 µM
GI50 (HCC-2998 colon): 2.17 µM
TGI (HCC-2998 colon): 4.53 µM
GI50 (CCRF-CEM leukemia): 3.85 µM
TGI (CCRF-CEM leukemia): 18.7 µM
GI50 (HOP-92 NSCLC): 4.31 µM
TGI (HOP-92 NSCLC): 18.1 µM
GI50 (NCI/ADR-RES ovarian): 13.2 µM
TGI (NCI/ADR-RES ovarian): 69.7 µM
GI50 (M14 melanoma): 2.72 µM
TGI (M14 melanoma): 10.3 µM
GI50 (SN12C renal): 4.03 µM
TGI (SN12C renal): 15.5 µM
GI50 (A549 NSCLC): 2.89 µM
TGI (A549 NSCLC): 11.1 µM
GI50 (IGROV1 ovarian): 2.29 µM
TGI (IGROV1 ovarian): 11.2 µM
GI50 (SF-539 CNS): 1.8 µM
TGI (SF-539 CNS): 3.96 µM
GI50 (SR leukemia): 3.07 µM
TGI (SR leukemia): > 100 µM
GI50 (U251 CNS): 2.98 µM
TGI (U251 CNS): 11 µM
GI50 (ACHN renal): 3.95 µM
TGI (ACHN renal): 14.6 µM
GI50 (RPMI-8226 leukemia): 2.69 µM
TGI (RPMI-8226 leukemia): 7.86 µM
GI50 (COLO 205 colon): 2.45 µM
TGI (COLO 205 colon): 7.22 µM
GI50 (MALME-3M melanoma): 4.05 µM
TGI (MALME-3M melanoma): 17.4 µM
GI50 (DU-145 prostate): 2.57 µM
TGI (DU-145 prostate): 7.02 µM
